Counter-ions that a name gives are not always drawn.
Row | Compound | melting point
1 | CN(C)c1ccc2nc(NC(=O)c3ccc(C(C)(C)C)cc3)cn2n1.Cl | 259 to 260 °C
2 | CC(C)(C)c1ccc(C(=O)Nc2cn3nc(N)ccc3n2)cc1.Cl | 312 to 313 °C
3 | CC(C)c1ncc(-c2ccc3nc(NC(=O)c4ccc(C(C)(C)C)cc4)cn3n2)[nH]1.Cl | 304 to 305 °C (dec.)
4 | Cc1cccc2nc(NC(=O)c3ccc(C(C)(C)C)cc3)cn12.Cl | 204 to 205 °C
5 | O=C([O-])c1ccc(C(=O)Nc2cn3cc(-n4ccnc4)ccc3n2)cc1.[K+] | > 400 °C
6 | CC(C)(C)c1ccc(C(=O)Nc2cn3c4c(ccc3n2)OCC4)cn1 (as salt: hydrochloride) [Example 18, 6-tert-butyl-N-(1,2-dihydrofuro[2,3-e]imidazo[1,2-a]pyridin-7-yl)nicotinamide dihydrochloride] | 199 to 200 °C
7 | CC(C)(C)c1ccc(C(=O)Nc2cn3nc(-n4ccnc4)ccc3n2)cc1 (as salt: hydrochloride) [Example 141, 4-tert-butyl-N-[6-(1H-imidazol-1-yl)imidazo[1,2-b]pyridazin-2-yl]benzamide dihydrochloride] | 298 to 300 °C
8 | Cc1ncc(-c2ccc3nc(NC(=O)c4ccc(C(C)(C)C)cc4)cn3n2)[nH]1 (as salt: hydrochloride) [Example 156, 4-tert-butyl-N-[6-(2-methyl-1H-imidazol-5-yl)imidazo[1,2-b]pyridazin-2-yl]benzamide hydrochloride] | 295 to 297 °C (dec.)
9 | CC(C)(C)c1ccc(C(=O)Nc2cn3nc(N4CCCC4)ccc3n2)cc1.Cl (hydrate or solvate) | 257 to 259 °C
10 | CC(C)(C)c1ccc(C(=O)Nc2cn3c4c(ccc3n2)OCC4)cc1 [Example 14, 4-tert-butyl-N-(1,2-dihydrofuro[2,3-e]imidazo[1,2-a]pyridin-7-yl)benzamide] | 266 to 268 °C
11 | COC(=O)C(C)(C)c1ccc(C(=O)Nc2cn3c4c(ccc3n2)OCC4)cc1 [Example 15, methyl 2-[4-(1,2-dihydrofuro[2,3-e]imidazo[1,2-a]pyridin-7-ylcarbamoyl)phenyl]-2-methylpropanoate] | 235 to 237 °C
12 | CC(C)(C(=O)O)c1ccc(C(=O)Nc2cn3c4c(ccc3n2)OCC4)cc1 [Example 16, 2-[4-(1,2-dihydrofuro[2,3-e]imidazo[1,2-a]pyridin-7-ylcarbamoyl)phenyl]-2-methylpropanoic acid] | 293 to 295 °C
13 | CC(C)(C)c1ccc(C(=O)Nc2cn3c4c(ccc3n2)OCC4)cn1 [Example 17, 6-tert-butyl-N-(1,2-dihydrofuro[2,3-e]imidazo[1,2-a]pyridin-7-yl)nicotinamide] | 246 to 248 °C
14 | COC(=O)C(C)(C)c1ccc(C(=O)Nc2cn3cc(C)ccc3n2)cc1 [Example 19, methyl 2-methyl-2-{4-[(6-methylimidazo[1,2-a]pyridin-2-yl)carbamoyl]phenyl}propanoate] | 228 to 230 °C
15 | Cc1ccc2nc(NC(=O)c3ccc(C(C)(C)C(=O)O)cc3)cn2c1 [Example 20] | 275 to 277 °C
16 | CCOC(=O)CCC(C)(C)c1ccc(C(=O)Nc2cn3cc(C)ccc3n2)cc1 [Example 21, ethyl 4-methyl-4-{4-[(6-methylimidazo[1,2-a]pyridin-2-yl)carbamoyl]phenyl}pentanoate] | 152 to 154 °C
17 | Cc1ccc2nc(NC(=O)c3ccc(C(C)(C)CCC(=O)O)cc3)cn2c1 [Example 22, 4-methyl-4-{4-[(6-methylimidazo[1,2-a]pyridin-2-yl)carbamoyl]phenyl}pentanoic acid] | 280 to 282 °C
18 | COC(=O)C(C)(C)c1ccc(C(=O)Nc2cn3cc(I)ccc3n2)cc1 [Example 23, methyl 2-{4-[(6-iodoimidazo[1,2-a]pyridin-2-yl)carbamoyl]phenyl}-2-methylpropanoate] | 234 to 235 °C
19 | COC(=O)C(C)(C)c1ccc(C(=O)Nc2cn3cc(-c4ccsc4)ccc3n2)cc1 [Example 24, methyl 2-methyl-2-(4-{[6-(3-thienyl)imidazo[1,2-a]pyridin-2-yl]carbamoyl}phenyl)propanoate] | 200 to 201 °C
20 | CC(C)(C(=O)O)c1ccc(C(=O)Nc2cn3cc(-c4ccsc4)ccc3n2)cc1 [Example 25, 2-methyl-2-(4-{[6-(3-thienyl)imidazo[1,2-a]pyridin-2-yl]carbamoyl}phenyl)propanoic acid] | 304 to 306 °C
21 | COC(=O)C(C)(C)c1ccc(C(=O)Nc2cn3cc(-c4ccoc4)ccc3n2)cc1 [Example 26, methyl 2-methyl-2-(4-{[6-(3-furyl)imidazo[1,2-a]pyridin-2-yl]carbamoyl}phenyl)propanoate] | 202 to 203 °C
22 | CC(C)(C(=O)O)c1ccc(C(=O)Nc2cn3cc(-c4ccoc4)ccc3n2)cc1 [Example 27, 2-methyl-2-(4-{[6-(3-furyl)imidazo[1,2-a]pyridin-2-yl]carbamoyl}phenyl)propanoic acid] | 307 to 309 °C

Row | Compound | melting point
23 | CC(C)(C(=O)O)c1ccc(C(=O)Nc2cn3cc(-c4cn[nH]c4)ccc3n2)cc1 [Example 29, 2-methyl-2-(4-{[6-(1H-pyrazol-4-yl)imidazo[1,2-a]pyridin-2-yl]carbamoyl}phenyl)propanoic acid] | 306 to 307 °C
24 | COC(=O)C(C)(C)c1ccc(C(=O)Nc2cn3cc(Cl)ccc3n2)cc1 [Example 30, methyl 2-{4-[(6-chloroimidazo[1,2-a]pyridin-2-yl)carbamoyl]phenyl}-2-methylpropanoate] | 245 to 246 °C
25 | CC(C)(C(=O)O)c1ccc(C(=O)Nc2cn3cc(Cl)ccc3n2)cc1 [Example 31, 2-{4-[(6-chloroimidazo[1,2-a]pyridin-2-yl)carbamoyl]phenyl}-2-methylpropanoic acid] | 311 to 313 °C
26 | CC(C)(CCC#N)c1ccc(C(=O)Nc2cn3cc(Cl)ccc3n2)cc1 [Example 32, N-(6-chloroimidazo[1,2-a]pyridin-2-yl)-4-(3-cyano-1,1-dimethylpropyl)benzamide] | 198 to 199 °C
27 | CC(C)(C(=O)NO)c1ccc(C(=O)Nc2cn3cc(Cl)ccc3n2)cc1 [Example 33, N-(6-chloroimidazo[1,2-a]pyridin-2-yl)-4-[2-(hydroxyamino)-1,1-dimethyl-2-oxoethyl]benzamide] | 212 to 213 °C
28 | CC(C)(C(=O)NCC#N)c1ccc(C(=O)Nc2cn3cc(Cl)ccc3n2)cc1 [Example 34, N-(6-chloroimidazo[1,2-a]pyridin-2-yl)-4-{2-[(cyanomethyl)amino]-cyano-1,1-dimethyl-2-oxoethyl}benzamide] | 268 to 269 °C
29 | CC(C)(C(=O)NCCC#N)c1ccc(C(=O)Nc2cn3cc(Cl)ccc3n2)cc1 [Example 35, N-(6-chloroimidazo[1,2-a]pyridin-2-yl)-4-{2-[(2-cyanoethyl)amino]-1,1-dimethyl-2-oxoethyl}benzamide] | 208 to 209 °C
30 | CC(C)(CCc1nnn[nH]1)c1ccc(C(=O)Nc2cn3cc(Cl)ccc3n2)cc1 [Example 36, N-(6-chloroimidazo[1,2-a]pyridin-2-yl)-4-[1,1-dimethyl-3-(1H-tetrazol-5-yl)propyl]benzamide] | 250 to 251 °C
31 | CC(C)(C#N)c1ccc(C(=O)Nc2cn3cc(Cl)ccc3n2)cc1 [Example 38, N-(6-chloroimidazo[1,2-a]pyridin-2-yl)-4-(1-cyano-1-methylethyl)benzamide] | 248 to 250 °C
32 | CC(C)(c1ccc(C(=O)Nc2cn3cc(Cl)ccc3n2)cc1)c1nnn[nH]1 [Example 39, N-(6-chloroimidazo[1,2-a]pyridin-2-yl)-4-[1-methyl-1-(1H-tetrazol-5-yl)ethyl]benzamide] | 266 to 267 °C
33 | CC(C)(c1ccc(C(=O)Nc2cn3cc(Cl)ccc3n2)cc1)c1noc(=O)[nH]1 [Example 40, N-(6-chloroimidazo[1,2-a]pyridin-2-yl)-4-[1-methyl-1-(5-oxo-4,5-dihydro-1,2,4-oxadiazol-3-yl)ethyl]benzamide] | 310 to 312 °C
34 | CC(C)(CCC#N)c1ccc(C(=O)Nc2cn3cc(-n4ccnc4)ccc3n2)cc1 [Example 45, 4-(3-cyano-1,1-dimethylpropyl)-N-[6-(1H-imidazol-1-yl)imidazo[1,2-a]pyridin-2-yl]benzamide] | 233 to 234 °C
35 | CC(C)(CCc1nnn[nH]1)c1ccc(C(=O)Nc2cn3cc(-n4ccnc4)ccc3n2)cc1 [Example 46, 4-[1,1-dimethyl-3-(1H-tetrazol-5-yl)propyl]-N-[6-(1H-imidazol-1-yl)imidazo[1,2-a]pyridin-2-yl]benzamide] | 266 to 267 °C
36 | CC(C)(C)c1ccc(C(=O)Nc2cn3c(ccc4ccccc43)n2)cc1 [Example 50, 4-tert-butyl-N-(imidazo[1,2-a]quinolin-3-yl)benzamide] | 204 to 205 °C
37 | CC(C)(C)c1ccc(C(=O)Nc2cn3ccccc3n2)cc1 [Example 54, 4-tert-butyl-N-(imidazo[1,2-a]pyridin-2-yl)benzamide] | 230 to 231 °C
38 | Cc1c(NC(=O)c2ccc(C(C)(C)C)cc2)nc2ccc(Cl)nn12 [Example 55, 4-tert-butyl-N-(6-chloro-3-methylimidazo[1,2-b]pyridazin-2-yl)benzamide] | 269 to 270 °C
39 | Cc1c(NC(=O)c2ccc(C(C)(C)C)cc2)nc2ccc(-n3ccnc3)nn12 [Example 56, 4-tert-butyl-N-[6-(1H-imidazol-1-yl)-3-methylimidazo[1,2-b]pyridazin-2-yl]benzamide] | 302 to 303 °C
40 | CC(C)(C)c1ccc(C(=O)Nc2cn3cc(-c4ccncc4)ccc3n2)cc1 [Example 59, 4-tert-butyl-N-[6-(pyridin-4-yl)imidazo[1,2-a]pyridin-2-yl]benzamide] | 293 to 294 °C
41 | CC(C)(C)c1ccc(C(=O)Nc2cn3cc(-c4ccoc4)ccc3n2)cc1 [Example 61, 4-tert-butyl-N-[6-(3-furyl)imidazo[1,2-a]pyridin-2-yl]benzamide] | 258 to 259 °C
42 | CC(C)(C)c1ccc(C(=O)Nc2cn3cc(-c4ccc[nH]4)ccc3n2)cc1 [Example 62] | 279 to 280 °C
43 | CC(C)(C)c1ccc(C(=O)Nc2cn3cc(-n4cccc4)ccc3n2)cc1 [Example 64, 4-tert-butyl-N-[6-(1H-pyrrol-1-yl)-imidazo[1,2-a]pyridin-2-yl]benzamide] | 274 to 275 °C

Source: patent US20100029619A1, “FUSED HETEROCYCLIC COMPOUND” (TAKEDA PHARMACEUTICAL COMPANY LIMTED, priority 2006, published 2010)
